Test results: PMC2684828 (Analytical chemistry, 2009)

Target: T1, Cytochrome P450cam (CYP101) (Pseudomonas putida, UniProt P00183)
T1 sequence (P00183 2-415): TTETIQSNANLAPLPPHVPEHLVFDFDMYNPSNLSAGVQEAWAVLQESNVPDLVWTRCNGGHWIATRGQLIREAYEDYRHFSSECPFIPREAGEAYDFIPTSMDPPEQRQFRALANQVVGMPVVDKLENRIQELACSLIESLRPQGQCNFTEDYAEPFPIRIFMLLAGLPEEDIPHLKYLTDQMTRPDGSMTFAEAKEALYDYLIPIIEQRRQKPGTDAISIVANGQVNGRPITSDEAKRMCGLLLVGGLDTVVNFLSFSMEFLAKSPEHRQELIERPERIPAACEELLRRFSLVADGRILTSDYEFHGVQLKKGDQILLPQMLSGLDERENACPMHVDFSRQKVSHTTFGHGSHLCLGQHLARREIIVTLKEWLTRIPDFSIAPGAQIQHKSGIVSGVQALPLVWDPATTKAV
Assay: enzyme/DNA film biosensor
Assay type: biochemical

## O=C(O)Cc1c[nH]cn1 [Imid.4AA, imidazole-4-acetic acid]
  Ki: 142 µM

## c1c[nH]cn1 [Imid., imidazole]
  Ki: 245 µM
